Experimental data from patent US9642846B2, “Antifungal drugs” (GEORGETOWN UNIVERSITY, priority 2013, dated 2017).
≈ marks a conversion by molar mass, not a printed value.

Experiments:
C. apicola = test: MIC80 broth microdilution; assay type: cell-based, Candida apicola; details: Starmerella apicola, 80% growth inhibition, RPMI-1640
Source text: (§1) Fluconazole, an ergosterol inhibitor, and the beta-1,3-glucan inhibitor micafungin served as controls (See Tables 1 and 2).
(§2) The minimum inhibitory concentrations resulting in 80% growth inhibition (MIC of multiple Candida species (Candida albicans, Candida tropicalis, Candida, guilliermondii, Candida glabrata, Candida lusitaniae, Candida parapsilois, Candida neoformans, Candida krusei, and Candida apicola) as well as Aspergillus fumigatus to a set of formula (II), (III), (IV), and (V) was determined in accordance with the guidelines in CLSI document M27-A2 (Clinical and Laboratory Standards Institute; Wayne, Pa.). The total volume of cells and drug was 100 μL per microtiter well, and each drug was diluted in RPMI to achieve final concentrations of 0.2-100 μg/ml. Uninoculated cultures were used as a reference standard. Stock inoculum suspensions were prepared from 24 hour cultures on YPD (yeast extract/peptone/dextrose) media at 30° C.
(§3) For MIC determinations, an inoculum of 1.0×10^3 cells of Candida and 2.0×10^3 cells of Aspergillus per well were used, and cells in diluted drugs were prepared in RPMI-1640 medium. MICs were determined both visually and spectrophotometrically at 24 hours and 48 h at 550 nm using a micro plate reader. The MIC80 endpoint was measured as the lowest drug concentration resulting in a reduction of growth of 80% or more compared with growth of the control.

C. guilliermondii = test: MIC80 broth microdilution; assay type: cell-based, Candida guilliermondii; details: Meyerozyma guilliermondii, 80% growth inhibition, RPMI-1640
Source text: as §1, §2, §3

C. krusei = test: MIC80 broth microdilution; assay type: cell-based, Candida krusei; details: Pichia kudriavzevii, 80% growth inhibition, RPMI-1640
Source text: as §1, §2, §3

C. neoformans JEC-21 = test: MIC80 broth microdilution; assay type: cell-based, Candida neoformans; details: Cryptococcus neoformans, JEC21, 80% growth inhibition, RPMI-1640
Source text: as §1, §2, §3

C. neoformans H99 = test: MIC80 broth microdilution; assay type: cell-based, Candida neoformans; details: Cryptococcus neoformans, 80% growth inhibition, RPMI-1640
Source text: as §1, §2, §3

C. lusitaniae = test: MIC80 broth microdilution; assay type: cell-based, Candida lusitaniae; details: Clavispora lusitaniae, 80% growth inhibition, RPMI-1640
Source text: as §1, §2, §3

C. albicans (SC5314) = test: MIC80 broth microdilution; assay type: cell-based; details: Candida albicans, 80% growth inhibition, RPMI-1640, read at 24 and 48 h
Source text: as §1, §2, §3

C. tropicalis = test: MIC80 broth microdilution; assay type: cell-based; details: Candida tropicalis, 80% growth inhibition, RPMI-1640
Source text: as §1, §2, §3

C. albicans (CaMDR) = test: MIC80 broth microdilution; assay type: cell-based; details: Candida albicans, read-out: Activity (MIC80)
Source text: as §1, §2, §3

C. glabrata = test: MIC80 broth microdilution; assay type: cell-based, Candida glabrata; details: Nakaseomyces glabratus, 80% growth inhibition, RPMI-1640
Source text: as §1, §2, §3

C. parapsilosis = test: MIC80 broth microdilution; assay type: cell-based, Candida parapsilosis; details: Lodderomyces parapsilosis, 80% growth inhibition, RPMI-1640
Source text: as §1, §2, §3

A. fumigatus H11-20 = test: MIC80 broth microdilution; assay type: cell-based; details: Aspergillus fumigatus, H1120, 80% growth inhibition, RPMI-1640
Source text: as §1, §2, §3

A. fumigatus AF293 = test: MIC80 broth microdilution; assay type: cell-based; details: Aspergillus fumigatus, 80% growth inhibition, RPMI-1640
Source text: as §1, §2, §3

MDR A. fumigatus = test: MIC80 broth microdilution; assay type: cell-based; details: Aspergillus fumigatus, 80% growth inhibition, RPMI-1640
Source text: as §1, §2, §3

HepG2 liver cell = test: MTT toxicity assay; assay type: cell-based, human; details: MTT after 24 hours and 48 hours
Procedure: (§4) The MTT assay is a colorimetric assay that measures the reduction of yellow 3-(4,5-dimethythiazol-2-yl)-2,5-diphenyl tetrazolium bromide (MTT) by mitochondrial succinate dehydrogenase. The MIT enters the cells and passes into the mitochondria where it is reduced to an insoluble, dark purple, formazan product. The cells are then solubilized with an organic solvent (e.g., isopropanol) and the released, solubilized formazan reagent is measured spectrophotometrically. Since reduction of MTT can only occur in metabolically active cells, the level of activity is a measure of the viability of the cells.
(§5) Cells of the HepG2 liver cell, NIH/3T3 fibrolast cell, or 293T kidney cell were seeded in a 96 well plate. The plate was incubated overnight at 37° C. in a humidified incubator, 5% CO2. Compounds of formula (II), (III), (IV), (V), and (VI) were added to the plate. Different concentrations of drug were tested in triplicate along with a negative control. The final volume was adjusted to 100 μl per well. The plate was incubated overnight at 37° C. in a humidified incubator, 5% CO2. After 24 hours and 48 hours, MTT reagent (5 mg/ml, 10 μl/100 μl per well of the 96 well plate) was added and incubated at 37° C. for 3 hours. After 3 hours, 100 μl of the DMSO solution was added to each well and the plate was rocked at room temperature for 1 hour. The plate was then read on a plate reader at […]. The results are shown below in tables 1 and 2.

NIH/3T3 Fibroblast cell = test: MTT toxicity assay; assay type: cell-based; details: MTT after 24 hours and 48 hours
Procedure: as §4, §5

293T kidney cell = test: MTT toxicity assay; assay type: cell-based; details: MTT after 24 hours and 48 hours
Procedure: as §4, §5

C. albicans (wild type) = test: E-test of formula (II) and fluconazole; assay type: cell-based, Candida albicans; details: fluconazole E test strips on YPD plate, 48 h at 30° C.
Procedure: E test strips (Biomerieux) containing a graded series of fluconazole concentration are placed on a YPD plate that had been previously inoculated to confluency with C. albicans. The strip plate that was inoculated, is incubated for 48 h at 30° C. The zone of inhibition at the lowest concentration of fluconazole is read as the MIC. The results, shown in FIG. 2, indicate synergy between the compound of formula (II) and fluconazole.

Row | SMILES | MIC80 (C. apicola) [µg/mL] | MIC80 (C. guilliermondii) [µg/mL] | MIC80 (C. krusei) [µg/mL] | MIC80 (C. neoformans JEC-21) [µg/mL] | MIC80 (C. neoformans H99) [µg/mL] | MIC80 (C. lusitaniae) [µg/mL] | MIC80 (C. albicans (SC5314)) [µg/mL] | MIC80 (C. tropicalis) [µg/mL] | MIC80 (C. albicans (CaMDR)) [µg/mL] | MIC80 (C. glabrata) [µg/mL] | MIC80 (C. parapsilosis) [µg/mL] | MIC80 (A. fumigatus H11-20) [µg/mL] | MIC80 (A. fumigatus AF293) [µg/mL] | MIC80 (MDR A. fumigatus) [µg/mL] | toxicity (MTT) (HepG2 liver cell) [µg/mL] | toxicity (MTT) (NIH/3T3 Fibroblast cell) [µg/mL] | toxicity (MTT) (293T kidney cell) [µg/mL] | interaction with fluconazole (E-test) (C. albicans (wild type))
1 | OC(Cn1cncn1)(Cn1cncn1)c1ccc(F)cc1F [Fluconazole, reference compound] | 0.25 (≈ 0.816 µM) | 2 (≈ 6.53 µM) | 32 (≈ 104 µM) | 2 (≈ 6.53 µM) | 4 (≈ 13.1 µM) | 2 (≈ 6.53 µM) | 0.25 (≈ 0.816 µM) | 0.5 (≈ 1.63 µM) | 32 (≈ 104 µM) | 2 (≈ 6.53 µM) | 1 (≈ 3.27 µM) | – | – | – | – | – | – | –
2 | CCC(C)n1ncn(-c2ccc(N3CCN(c4ccc(OCC5COC(Cn6cncn6)(c6ccc(Cl)cc6Cl)O5)cc4)CC3)cc2)c1=O (stereo not shown) [Itraconazole, reference compound] | – | – | – | – | – | – | – | – | – | – | – | 0.5 (≈ 0.709 µM) | 0.5 (≈ 0.709 µM) | > 100 | – | – | – | –
3 | COc1cc2cc[n+]3c(C)c4cc5c(cc4cc3c2cc1OC)OCO5 [compound 156624] | 4 | 4 | 4 | 1 | 8 | 1 | 4 | 4 | 0.2 | 1 | 8 | 4 | 4 | 4 | 80 | >100 | 80 | –
4 | Cc1c2cc3c(cc2cc2c4cc5c(cc4cc[n+]12)OCO5)OCO3 [compound 156627] | 0.5 | 0.5 | 0.5 | < 0.2 | 1 | < 0.2 | 0.5 | 0.5 | 0.05 | < 0.2 | 1 | 0.5 | 0.5 | 0.5 | 25 | 40 | 25 | synergy
5 | CCc1c2cc3c(cc2cc2c4cc5c(cc4cc[n+]12)OCO5)OCO3 [compound 157108] | 1 | 2 | 2 | 0.2 | 2 | 0.2 | 1 | 2 | 0.2 | 0.2 | 2 | 1 | 1 | 1 | 64 | 100 | 70 | –
6 | COc1cc2cc3c4cc5c(cc4cc[n+]3c(C)c2cc1OC)OCO5 [compound 160459] | 4 | 4 | 4 | 0.5 | 8 | 1 | 4 | 4 | 0.1 | 0.5 | 8 | 4 | 4 | 4 | 50 | 80 | 60 | –
7 | COc1ccc2cc3c4cc5c(cc4cc[n+]3cc2c1OC)OCO5 [compound 403831] | 1 | 1 | 2 | 0.5 | 0.5 | 0.5 | 1 | 1 | 0.1 | 0.25 | 2 | 1 | 1 | 1 | 80 | 96 | 80 | –
